Results published in patent US20250312303A1, “ANTICANCER AGENT” (AGC Inc., priority 2022, published 2025).
Values joined by “and” are separate entries in the source; they are usually repeats but may differ in a detail not shown here. Equal entries are not always repeated.

Experiments:
NHDF cells = assay: SRB assay, relative cell proliferation rate of NHDF cells (control non-cancer cells); type: cell-based
Text: (§1) HeLa cells and PANC-1 cells were used as the cancer cells. Both these cells were obtained from ATCC. Further, NHDF cells obtained from Lonza Group Ltd. were used as control non-cancer cells. The culture mediums used were Dulbecco's Modified Eagle Medium (D-MEM, manufactured by FUJIFILM Wako Pure Chemical Corporation) to which 10% FBS had been added (hereinafter also referred to as the “normal medium”), a medium prepared by removing leucine from D-MEM and adding 10% FBS (hereinafter also referred to as the “Leu-removed medium”), and a medium prepared by removing valine from D-MEM and adding 10% FBS (hereinafter also referred to as the “Val-removed medium”).
(§2) The culture cells were inoculated into a 96-well culture plate at a concentration of 3×10^3 cells/well, and following adhesion, were cultured for 24, 48 or 72 hours in the normal medium, the Leu-removed medium or Val-removed medium, or a medium prepared by adding the fluorine-containing amino acid to the Leu-removed medium or Val-removed medium in an amount sufficient to achieve a final concentration of 0.8 mM. Following culturing, the cell proliferation rate was measured by SRB assay. As a control, the cell proliferation rate was measured in a similar manner for cells having a culture time of 0 hours.
(§3) The SRB assays were conducted in the following manner. Following cell culturing, the medium was removed, and 10% (wt/vol) of trichloroacetic acid was added to fix the cells. Subsequently, the fixed cells were washed three times with tap water, and then stained by adding a solution containing 0.4% (wt/vol) of sulforhodamine B dissolved in 1% acetic acid. Following subsequent washing three times with a 1% acetic acid solution, a 10 mM Tris solution was added, and the light absorbance at 540 nm was measured. The 540 nm absorbance value for each sample was used to indicate the cell quantity, and for each sample, the relative cell proliferation rate (%) at a culture time of X hours was determined using the formula below.
(§4) SRB assays were conducted in the same manner as Example 1 with the exceptions of using a medium prepared by removing glutamine from D-MEM and adding 10% FBS (hereinafter also referred to as the “Gln-removed medium”) as the culture medium instead of the Leu-removed medium, using monofluoroglutamine ((2S,4S)Gln(1F) or (2S,4R)Gln(1F)) as the fluorine-containing amino acid, and altering the amount of monofluoroglutamine added to the Gln-removed medium to an amount sufficient to achieve a final concentration of 4 mM.

PANC-1 cells = assay: SRB assay, relative cell proliferation rate of PANC-1 cells; type: cell-based
Text: as §1, §2, §3, §4
(§5) SRB assays were conducted in the same manner as Example 1 with the exceptions of using the Gln-removed medium as the culture medium instead of the Leu-removed medium, using difluoroglutamine as the fluorine-containing amino acid, and altering the amount of difluoroglutamine added to the Gln-removed medium to an amount sufficient to achieve a final concentration of 4 mM.

HeLa cells [1] = assay: SRB assay, relative cell proliferation rate of HeLa cells; type: cell-based
Text: as §1, §2, §3, §4, §5

HeLa cells [2] = assay: Tumor volume of subcutaneously transplanted HeLa cells in SCID/SCID mice; type: in vivo
Protocol: First, 0.1 mL samples of an HeLa cell solution with a concentration of 1.0×10^7 cells/mL were transplanted beneath the skin of SCID/SCID (immunodeficient) mice. Starting 7 days after the HeLa cell transplantation, PBS (control group), leucine (5 mg/kg mouse bodyweight) or trifluoroleucine (5 mg/kg mouse bodyweight) was administered intraperitoneally every day for two weeks. The growth of the tumor tissue was observed over time from the time of HeLa transplantation, and the tumor volume (mm^3) was calculated. The tumor volume (mm^3) was calculated from the major diameter (mm) of the tumor tissue and the minor diameter (mm) of the tumor tissue using the formula shown below.
With the exceptions of using monofluoroisoleucine or 5-fluoro-5-methyl-norleucine (CAS RN: 1361228-49-0) instead of the trifluoroleucine, and starting the administration of the PBS, 5-fluoro-5-methyl-norleucine or monofluoroisoleucine 11 days after rather than 7 days after the HeLa cell transplantation, the same procedure as (1) above was used to measure the volume (mm^3) of the tumor formed by the subcutaneously transplanted HeLa cells over time.
(§6) First, 0.1 mL samples of an HeLa cell solution with a concentration of 1.0×10^7 cells/mL were transplanted beneath the skin of SCID/SCID (immunodeficient) mice. Starting 7 days after the HeLa cell transplantation, PBS (control group), glutamine (Gln) (5 mg/kg mouse bodyweight), (2S,4S)Gln(1F) (5 mg/kg mouse bodyweight) or (2S,4R)Gln(1F) (5 mg/kg mouse bodyweight) was administered intraperitoneally every day for two weeks. The growth of the tumor tissue was observed over time from the time of HeLa cell transplantation, and the tumor volume (mm^3) was calculated. The tumor volume (mm^3) was determined in the same manner as that described in Example 2.
as §6, with “mouse bodyweight), or di-F-Gln(F)” for “mouse bodyweight), (2S,4S)Gln(1F) (5 mg/kg mouse bodyweight) or (2S,4R)Gln(1F)”, “bodyweight), or di-F-Gln(F) (5 mg/kg” for “bodyweight) or (2S,4R)Gln(1F) (5 mg/kg”, “of HeLa transplantation, and” for “of HeLa cell transplantation, and”

[3] = Leu-removed medium + 0.8 mM amino acid, culture time 24 h
[4] = Leu-removed medium + 0.8 mM amino acid, culture time 48 h
[5] = Leu-removed medium + 0.8 mM amino acid, culture time 72 h, hydrochloride
[6] = 5 mg/kg intraperitoneally every day for two weeks starting day 7, 7 days since HeLa cell transplantation
[7] = 5 mg/kg intraperitoneally every day for two weeks starting day 7, 14 days since HeLa cell transplantation
[8] = 5 mg/kg intraperitoneally every day for two weeks starting day 7, 21 days since HeLa cell transplantation
[9] = Val-removed medium + 0.8 mM amino acid, culture time 24 h
[10] = Val-removed medium + 0.8 mM amino acid, culture time 48 h
[11] = Val-removed medium + 0.8 mM amino acid, culture time 72 h
[12] = Val-removed medium + 0.8 mM amino acid, culture time 72 h, listed as monofluorovaline
[13] = Leu-removed medium + 0.8 mM amino acid, culture time 72 h
[14] = Val-removed medium + 0.8 mM amino acid, culture time 72 h, listed as hexafluorovaline

## Cl.NC(CC(C(F)(F)F)C(F)(F)F)C(=O)O (stereo not drawn) [Leu(6F), 2-amino-5,5,5-trifluoro-4-(trifluoromethyl) pentanoic acid hydrochloride]
NHDF cells; [3]
  Relative cell proliferation rate of NHDF cells: 104.7%
NHDF cells; [4]
  Relative cell proliferation rate of NHDF cells: 130.1%
NHDF cells; [5]
  Relative cell proliferation rate of NHDF cells: 179.1%
PANC-1 cells; [3]
  Relative cell proliferation rate of PANC-1 cells: 75.5%
PANC-1 cells; [4]
  Relative cell proliferation rate of PANC-1 cells: 96.5%
PANC-1 cells; [5]
  Relative cell proliferation rate of PANC-1 cells: 193.6%
PANC-1 cells; Leu-removed medium + 0.8 mM amino acid, culture time 72 h, listed as hexafluoroleucine, hydrochloride
  Relative cell proliferation rate of PANC-1 cells: ~200%
HeLa cells [1]; [3]
  Relative cell proliferation rate of HeLa cells: 137.3%
HeLa cells [1]; [4]
  Relative cell proliferation rate of HeLa cells: 264.0%
HeLa cells [1]; [5]
  Relative cell proliferation rate of HeLa cells: 472.5%

## NC(=O)CC[C@H](N)C(=O)O [Gln, glutamine, reference compound]
HeLa cells [2]; [6]
  Tumor volume: 76.0 mm^3 and 97.3 mm^3
HeLa cells [2]; 5 mg/kg intraperitoneally every day for two weeks starting day 7, 9 days since HeLa cell transplantation
  Tumor volume: 134.7 mm^3 and 259.1 mm^3
HeLa cells [2]; 5 mg/kg intraperitoneally every day for two weeks starting day 7, 11 days since HeLa cell transplantation
  Tumor volume: 215.4 mm^3 and 341.0 mm^3
HeLa cells [2]; [7]
  Tumor volume: 488.0 mm^3 and 721.9 mm^3
HeLa cells [2]; 5 mg/kg intraperitoneally every day for two weeks starting day 7, 16 days since HeLa cell transplantation
  Tumor volume: 734.1 mm^3 and 1094.6 mm^3
HeLa cells [2]; 5 mg/kg intraperitoneally every day for two weeks starting day 7, 18 days since HeLa cell transplantation
  Tumor volume: 939.6 mm^3 and 1348.3 mm^3
HeLa cells [2]; [8]
  Tumor volume: 1256.0 mm^3 and 1849.5 mm^3
HeLa cells [2]; HeLa tumor-bearing SCID/SCID mice, 5 mg/kg intraperitoneally every day for two weeks, result in words
  Increase in the size of the tumor tissue compared with the control group: even larger than the control group

## CC(C)(F)C(N)C(=O)O (racemic) [Val(1F), 3-fluoro-DL-valine]
NHDF cells; [9]
  Relative cell proliferation rate of NHDF cells: 91.5%
NHDF cells; [10]
  Relative cell proliferation rate of NHDF cells: 70.4%
NHDF cells; [11]
  Relative cell proliferation rate of NHDF cells: 110.5%
NHDF cells; [12]
  Relative cell proliferation rate of NHDF cells: lower than the relative cell proliferation rate observed for the Val-removed medium
PANC-1 cells; [9]
  Relative cell proliferation rate of PANC-1 cells: 88.8%
PANC-1 cells; [10]
  Relative cell proliferation rate of PANC-1 cells: 103.8%
PANC-1 cells; [11]
  Relative cell proliferation rate of PANC-1 cells: 105.1%
PANC-1 cells; [12]
  Relative cell proliferation rate of PANC-1 cells: about 100%
HeLa cells [1]; [9]
  Relative cell proliferation rate of HeLa cells: 72.83%
HeLa cells [1]; [10]
  Relative cell proliferation rate of HeLa cells: 118.0%
HeLa cells [1]; [11]
  Relative cell proliferation rate of HeLa cells: 273.6%

## CC(C(N)C(=O)O)C(F)(F)F (stereo not drawn) [Val(3F), 2-amino-3-methyl-4,4,4-trifluorobutanoic acid]
NHDF cells; [9]
  Relative cell proliferation rate of NHDF cells: 83.0%
NHDF cells; [10]
  Relative cell proliferation rate of NHDF cells: 104.6%
NHDF cells; [11]
  Relative cell proliferation rate of NHDF cells: 116.6%
PANC-1 cells; [9]
  Relative cell proliferation rate of PANC-1 cells: 108.9%
PANC-1 cells; [10]
  Relative cell proliferation rate of PANC-1 cells: 161.2%
PANC-1 cells; [11]
  Relative cell proliferation rate of PANC-1 cells: 253.7%
HeLa cells [1]; [9]
  Relative cell proliferation rate of HeLa cells: 151.7%
HeLa cells [1]; [10]
  Relative cell proliferation rate of HeLa cells: 287.6%
HeLa cells [1]; [11]
  Relative cell proliferation rate of HeLa cells: 494.3%

## CC(C)C[C@H](N)C(=O)O [Leu, leucine, reference compound]
HeLa cells [2]; [6]
  Tumor volume: 77.4 mm^3
HeLa cells [2]; 5 mg/kg intraperitoneally every day for two weeks starting day 7, 10 days since HeLa cell transplantation
  Tumor volume: 190.1 mm^3
HeLa cells [2]; 5 mg/kg intraperitoneally every day for two weeks starting day 7, 12 days since HeLa cell transplantation
  Tumor volume: 355.3 mm^3
HeLa cells [2]; [7]
  Tumor volume: 385.1 mm^3
HeLa cells [2]; 5 mg/kg intraperitoneally every day for two weeks starting day 7, 17 days since HeLa cell transplantation
  Tumor volume: 714.2 mm^3
HeLa cells [2]; 5 mg/kg intraperitoneally every day for two weeks starting day 7, 19 days since HeLa cell transplantation
  Tumor volume: 1094.6 mm^3
HeLa cells [2]; [8]
  Tumor volume: 1536.5 mm^3

## CC(C)(F)C[C@H](N)C(=O)O [Leu(1F), 4-fluoro-L-leucine]
NHDF cells; [3]
  Relative cell proliferation rate of NHDF cells: 92.0%
NHDF cells; [4]
  Relative cell proliferation rate of NHDF cells: 66.4%
NHDF cells; [13]
  Relative cell proliferation rate of NHDF cells: 87.7%
NHDF cells; Leu-removed medium + 0.8 mM amino acid, culture time 72 h, listed as monofluoroleucine
  Relative cell proliferation rate of NHDF cells: less than 100%
PANC-1 cells; [3]
  Relative cell proliferation rate of PANC-1 cells: 67.6%
PANC-1 cells; [4]
  Relative cell proliferation rate of PANC-1 cells: 47.9%
PANC-1 cells; [13]
  Relative cell proliferation rate of PANC-1 cells: 40.9%
HeLa cells [1]; [3]
  Relative cell proliferation rate of HeLa cells: 82.3%
HeLa cells [1]; [4]
  Relative cell proliferation rate of HeLa cells: 90.6%
HeLa cells [1]; [13]
  Relative cell proliferation rate of HeLa cells: 82.0%

## NC(C(=O)O)C(C(F)(F)F)C(F)(F)F (racemic) [Val(6F), 4,4,4,4′,4′,4′-hexafluoro-DL-valine]
NHDF cells; [9]
  Relative cell proliferation rate of NHDF cells: 109.8%
NHDF cells; [10]
  Relative cell proliferation rate of NHDF cells: 104.4%
NHDF cells; [11]
  Relative cell proliferation rate of NHDF cells: 125.2%
NHDF cells; [14]
  Relative cell proliferation rate of NHDF cells: lower than the relative cell proliferation rate observed for the Val-removed medium
PANC-1 cells; [9]
  Relative cell proliferation rate of PANC-1 cells: 104.3%
PANC-1 cells; [10]
  Relative cell proliferation rate of PANC-1 cells: 133.4%
PANC-1 cells; [11]
  Relative cell proliferation rate of PANC-1 cells: 141.3%
HeLa cells [1]; [9]
  Relative cell proliferation rate of HeLa cells: 88.1%
HeLa cells [1]; [10]
  Relative cell proliferation rate of HeLa cells: 93.7%
HeLa cells [1]; [11]
  Relative cell proliferation rate of HeLa cells: 67.6%
HeLa cells [1]; [14]
  Relative cell proliferation rate of HeLa cells: less than 100%

## CC(C)(F)CC[C@H](N)C(=O)O [5F-NorLeu, 5-fluoro-5-methyl-norleucine]
HeLa cells [2]; administration intraperitoneally every day starting day 11, 11 days since HeLa cell transplantation
  Tumor volume: 230.6 mm^3
HeLa cells [2]; administration intraperitoneally every day starting day 11, 13 days since HeLa cell transplantation
  Tumor volume: 373.9 mm^3
HeLa cells [2]; administration intraperitoneally every day starting day 11, 15 days since HeLa cell transplantation
  Tumor volume: 684.9 mm^3
HeLa cells [2]; administration intraperitoneally every day starting day 11, 18 days since HeLa cell transplantation
  Tumor volume: 823.5 mm^3
HeLa cells [2]; administration intraperitoneally every day starting day 11, 20 days since HeLa cell transplantation
  Tumor volume: 1291.7 mm^3
HeLa cells [2]; administration intraperitoneally every day starting day 11, 22 days since HeLa cell transplantation
  Tumor volume: 1951.5 mm^3
